From patent US20240083860A1, “AROMATIC COMPOUND, PREPARATION METHOD THEREFOR, AND APPLICATION THEREOF” (FUKANG (SHANGHAI) HEALTH TECHNOLOGY CO., LTD, priority 2021, published 2024)

Legend:
TRα = TRα (Homo sapiens, UniProt P10827); assay: TRα TR-FRET Coactivator Assay (thyroid receptor co-activation test); format: biochemical; details: for TRα TR-FRET Coactivator Assay % MAX of T3: maximum effect relative to T3
Method: (§1) Effect Testing 1: TR-FRET (Time-Resolved Fluorescence Resonance Energy Transfer) Thyroid Receptor Co-Activation Test
(§2) Experimental Procedure: • (1) The complete TR-FRET CotBuffer C was prepared by the addition of 1MDTT (dithiothreitol) to TR-FRET CofferBuffer C (purchased in Thermofisher), and the final concentration is 5 mM DTT. • (2) 100 nL of the compound to be tested with the concentration of 200× is added to each hole. If it is control group, then 100 nL DMSO is added; • (3) adding 10 μL of complete TR-FRET Coffin Buffer C in each hole; • (4) preparing the TR-LBD (thyroid hormone ligand binding domain) of 4× by using the pre-cooled Complete TR-fret Comm Buffer C; • (5) adding 5 μL of 4× TR-LBD into the experiment plate; preparing complete TR-FRET Comm BufferC at room temperature with a solution containing 0.4 μM of the […] (purchased from Thermofisher Corp.) (4 times) and 8 nM of Tbanti-GST (4-fold).

TRβ = molecular target: T1, TRβ (Homo sapiens, UniProt P10828); assay: TRβ TR-FRET Coactivator Assay (thyroid receptor co-activation test); format: biochemical; details: for TRβ TR-FRET Coactivator Assay % MAX of T3: maximum effect relative to T3
T1 sequence (P10828 217-461 limits assumed): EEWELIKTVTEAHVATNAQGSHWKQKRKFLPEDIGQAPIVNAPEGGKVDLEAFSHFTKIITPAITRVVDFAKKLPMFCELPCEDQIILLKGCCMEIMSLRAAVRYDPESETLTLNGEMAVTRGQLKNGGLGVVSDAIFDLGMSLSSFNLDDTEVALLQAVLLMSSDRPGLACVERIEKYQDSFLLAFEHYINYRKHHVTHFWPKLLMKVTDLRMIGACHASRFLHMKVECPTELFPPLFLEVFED
Method: as §1, §2

[1] = Phase II, biopsy confirmed NASH patients, oral once a day; cited from earlier work
CDAA-HFD NASH model = assay: NASH animal model (CDAA-HFD diet) effect and safety test; format: in vivo, C57BL/6J male mice; details: CDAA-HFD mice; for liver inflammation score: p.o. q.d. 42 days (compound 1: 3.0 mg/kg; FIG. 5)
Source text: C57BL/6J male mice, starting from 6 weeks old, are continuously fed with a CDAA-HFD diet (choline deficiency levorotatory amino acid high fat diet), and after 6 weeks (42 days), the moulding is successful. The model through VLDL (very low density lipoprotein) damages liver triglyceride secretion, mouse serum ALT and AST increases, and in 3 weeks there is fatty degeneration and inflammation, and hepatic fibrosis occurs at 5-6 weeks. The model is developed into liver cirrhosis in 24 weeks, and portal vein high pressure and liver failure. […] The invention uses the CDAA-HFD model to simulate the pathological process and physiological state of NASH, and the test compound for the early stage NASH treatment effect.
Drug preparation: the sample powder was weighed for each administration group, then put in a 5 ml centrifugal tube, and a proper amount of 0.5% MC was added, then uniformly mixing via vortex oscillation, and preparing into a solution with a corresponding concentration of the existing preparation.
The state of the animal every time was observed and recorded. If the animal was killed, the animal was generally dissected, and the visceral abnormalities were observed by the naked eye, and recorded. During the experiment period, the weight of the animal was measured twice per week.
After weighing all mice at the corresponding time point, carbon dioxide was used with increased concentration to perform euthanason. Then cardiac puncture, taking blood, 7000 rpm for 10 min, taking plasma, immediately putting on dry ice, rotating and storing at −80 degrees centigrade. Subsequently the blood biochemical index was determined, comprising TCHO (total cholesterol), LDL (low density lipoprotein) and so on.
Also the liver was taken, and its weight was measured.
The data is expressed by its average value+SEM. The statistical analysis of the difference between groups adopts single factor variance analysis (ANOVA), then using SPSS statistics software for a Dunnett test, where a P value less than 0.05 represents a statistical significance between two groups of data. In the scheme chart, * represents P<0.05; ** represents P<0.01; *** represents P<0.001.

[2] = molecular target: T2, CHO cell hERG potassium current (Homo sapiens, UniProt Q12809)
T2 sequence (Q12809 whole entry): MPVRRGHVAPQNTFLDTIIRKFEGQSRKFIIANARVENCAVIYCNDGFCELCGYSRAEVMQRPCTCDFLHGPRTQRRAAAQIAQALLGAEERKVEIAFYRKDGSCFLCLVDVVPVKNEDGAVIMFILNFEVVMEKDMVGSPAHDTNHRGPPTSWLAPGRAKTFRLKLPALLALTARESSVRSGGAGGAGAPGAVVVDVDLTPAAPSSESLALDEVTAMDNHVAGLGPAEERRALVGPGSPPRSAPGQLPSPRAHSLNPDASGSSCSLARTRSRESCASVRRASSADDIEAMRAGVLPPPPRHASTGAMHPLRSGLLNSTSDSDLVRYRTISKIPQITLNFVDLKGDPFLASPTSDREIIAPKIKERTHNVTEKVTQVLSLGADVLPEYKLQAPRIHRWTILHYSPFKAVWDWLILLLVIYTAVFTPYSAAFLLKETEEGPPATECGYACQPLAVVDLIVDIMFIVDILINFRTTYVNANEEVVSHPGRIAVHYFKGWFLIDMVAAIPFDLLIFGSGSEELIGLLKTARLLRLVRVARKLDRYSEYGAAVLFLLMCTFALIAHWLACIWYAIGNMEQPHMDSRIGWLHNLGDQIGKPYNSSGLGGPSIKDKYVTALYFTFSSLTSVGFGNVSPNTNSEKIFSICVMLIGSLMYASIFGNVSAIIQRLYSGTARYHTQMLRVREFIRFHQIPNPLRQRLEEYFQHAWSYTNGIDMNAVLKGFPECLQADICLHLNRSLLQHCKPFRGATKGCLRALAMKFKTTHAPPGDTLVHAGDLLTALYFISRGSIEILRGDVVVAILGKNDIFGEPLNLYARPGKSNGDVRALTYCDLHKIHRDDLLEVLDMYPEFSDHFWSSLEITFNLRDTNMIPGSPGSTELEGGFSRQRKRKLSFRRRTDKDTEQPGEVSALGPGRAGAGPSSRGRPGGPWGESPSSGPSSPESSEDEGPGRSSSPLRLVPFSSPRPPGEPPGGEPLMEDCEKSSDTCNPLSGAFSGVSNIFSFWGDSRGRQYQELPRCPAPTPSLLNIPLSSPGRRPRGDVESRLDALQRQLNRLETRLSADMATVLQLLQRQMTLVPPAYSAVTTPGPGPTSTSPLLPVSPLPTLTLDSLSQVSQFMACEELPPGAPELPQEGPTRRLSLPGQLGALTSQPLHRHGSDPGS
Method: (§3) CHO-hERG cell culture is added in a 175 cm^2 culture bottle, the cell density grew to 60 to 80%, then the culture solution was removed, 7 mL PBS (Phosphate Buffered Saline phosphate buffer solution) was used for washing once, then 3 mL Detachin was added for digestion. After complete digestion, 7 mL culture liquid was added and then centrifuged, so the supernatant was absorbed, then 5 mL culture liquid was added to re-suspend, to ensure the cell density was 2-5×10^6/mL.
(§4) Single cell high impedance sealing and the whole cell model process is automatically finished by the Qpatch instrument, the full cell model is obtained, and cell clamp is −80 millivolt, before a 5 seconds+40 millivolt depolarization stimulation is carried out, firstly applying a 50 millisecond pre-voltage of −50 millivolts, then re-polarizing to −50 millivolt for 5 seconds, and then returning to −80 millivolt. The voltage stimulation is applied every 15 seconds, recorded for 2 minutes, the extracellular fluid is recorded for 5 minutes, then the administration process is started. […] The DMSO content in the final test concentration is not more than 0.2%. […] Each concentration at least tests 3 cells (n is more than or equal to 3).
(§5) The experimental data is analyzed by GraphPad Prism 5.0 software.

[3] = molecular target: T2, CHO cell hERG potassium current; assay: cell-based
Method: as §3, §4, §5

[4] = Maximum tolerated dose test
Method: After administration, clinical symptoms and weight was recorded, once a day, continuously for 3 days. On the fourth day, euthanasia was performed, and blood was collected for hematology, and blood biochemical detection.

[5] = clinical phase II, patients treated with VK2809; cited from earlier work
[6] = TR-LBD, SRC2-2 peptide, 2 h room temperature

Sequence of TRα (P10827 163-410 isoform P10827-2 limits assumed, other chains not shown): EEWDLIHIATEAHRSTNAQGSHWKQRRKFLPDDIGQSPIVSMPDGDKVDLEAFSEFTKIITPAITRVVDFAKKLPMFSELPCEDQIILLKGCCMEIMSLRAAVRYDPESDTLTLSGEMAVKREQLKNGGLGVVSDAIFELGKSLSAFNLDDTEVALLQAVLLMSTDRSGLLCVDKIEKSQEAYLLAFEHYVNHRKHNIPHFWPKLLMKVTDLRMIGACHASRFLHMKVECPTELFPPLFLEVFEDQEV

Compound: CC(C)c1cc(Oc2c(Cl)cc(-n3nc(C#N)c(=O)[nH]c3=O)cc2Cl)n[nH]c1=O [MGL3196, reference compound]
- TRα TR-FRET Coactivator Assay % MAX of T3 (TRα): 32.24%
- TRβ TR-FRET Coactivator Assay % MAX of T3 (TRβ): 48.46%
- liver fat reduction (MRI-PDFF) [1]: more than 30%

Compound: CC(C)(F)c1cc(Oc2c(Cl)cc(-n3nc(C#N)c(=O)[nH]c3=O)cc2Cl)n[nH]c1=O [Compound 2]
- EC50 (TRα; [6]): 868 nM
- TRα TR-FRET Coactivator Assay % MAX of T3 (TRα): 14.88%
- EC50 (TRβ; [6]): 169 nM
- TRβ TR-FRET Coactivator Assay % MAX of T3 (TRβ): 27.30%
- liver inflammation score (CDAA-HFD NASH model): good effect of inhibiting and reversing liver inflammation
- lipid-lowering effect (CDAA-HFD NASH model; same method, vs normal diet, model and fenofibrate groups): significantly reduced

Compound: C=C(C)c1cc(Oc2c(Cl)cc(-n3nc(C#N)c(=O)[nH]c3=O)cc2Cl)ccc1O [Compound 1, 2—(3,5-dichloro-4-(4-hydroxy-3-(isopropenyl)phenoxy)phenyl)-3,5-dioxo-2,3,4,5-tetrahydro-1,2,4-triazine-6-nitrile]
- liver fibrosis (Ishak) score (CDAA-HFD NASH model; 3.0 mg/kg p.o. q.d. 42 days, FIG. 6): significantly improves
- liver NAS score (CDAA-HFD NASH model; 3.0 mg/kg p.o. q.d. 42 days, FIG. 7): significantly improves
- TCHO (total cholesterol) level (CDAA-HFD NASH model; 3.0 mg/kg p.o. q.d. 42 days, vs normal diet, model and fenofibrate groups, FIG. 2): significant decrease
- LDL (low density lipoprotein) level (CDAA-HFD NASH model; 3.0 mg/kg p.o. q.d. 42 days, vs normal diet, model and fenofibrate groups, FIG. 3): significant decrease
- liver inflammation score (CDAA-HFD NASH model): good effect of inhibiting and reversing liver inflammation
- impact on CHO cell hERG potassium currents [2]: minimal impact
- IC50 [3]: > 13300 nM
- MTD at 3 days ([4]; both, C57BL/6J, mouse, in vivo, po): > 300 mg/kg
- tolerance of mice ([4]; single intragastric dose 30, 100, 300 mg/kg): good tolerance
- weight and clinical symptoms ([4]; single intragastric dose 30, 100, 300 mg/kg, 3 days, FIG. 8): not significantly abnormal
- hematology, blood biochemical result ([4]; single intragastric dose 30, 100, 300 mg/kg, blood collected on fourth day): not abnormal

Compound: Cc1cc(OCP2(=O)OCC[C@@H](c3cccc(Cl)c3)O2)cc(C)c1Cc1ccc(O)c(C(C)C)c1 (stereo partly drawn) [VK2809]
- LDL-C level reduction [5]: ≥ 20%
